Structures are written as SMILES.

Holding throughout (type): biochemical
The target of experiment [1] is T1, ENPP1 (Homo sapiens, UniProt P22413).
T1 sequence (P22413 1-925): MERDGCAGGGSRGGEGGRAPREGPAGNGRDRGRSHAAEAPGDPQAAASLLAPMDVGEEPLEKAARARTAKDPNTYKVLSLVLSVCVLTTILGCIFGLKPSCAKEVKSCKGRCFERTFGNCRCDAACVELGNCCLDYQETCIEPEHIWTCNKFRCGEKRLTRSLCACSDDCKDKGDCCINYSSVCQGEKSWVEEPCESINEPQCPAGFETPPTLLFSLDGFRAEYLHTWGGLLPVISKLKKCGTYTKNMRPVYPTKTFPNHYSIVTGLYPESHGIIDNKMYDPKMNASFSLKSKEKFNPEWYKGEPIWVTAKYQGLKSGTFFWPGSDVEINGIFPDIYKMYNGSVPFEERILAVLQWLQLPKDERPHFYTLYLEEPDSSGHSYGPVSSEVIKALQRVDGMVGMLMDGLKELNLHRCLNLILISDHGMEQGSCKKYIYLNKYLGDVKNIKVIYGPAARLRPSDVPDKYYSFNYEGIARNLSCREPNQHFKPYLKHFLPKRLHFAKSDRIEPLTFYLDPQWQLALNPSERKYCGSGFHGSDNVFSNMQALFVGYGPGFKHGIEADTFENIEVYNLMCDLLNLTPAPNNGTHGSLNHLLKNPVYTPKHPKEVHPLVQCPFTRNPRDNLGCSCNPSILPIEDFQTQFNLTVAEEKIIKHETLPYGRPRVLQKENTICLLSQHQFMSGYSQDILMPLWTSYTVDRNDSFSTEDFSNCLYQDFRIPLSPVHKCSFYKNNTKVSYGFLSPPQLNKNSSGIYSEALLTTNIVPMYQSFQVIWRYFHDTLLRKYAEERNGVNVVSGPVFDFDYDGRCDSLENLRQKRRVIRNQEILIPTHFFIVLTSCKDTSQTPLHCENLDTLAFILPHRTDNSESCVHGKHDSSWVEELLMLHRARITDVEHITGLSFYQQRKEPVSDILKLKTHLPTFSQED
Put plainly: ENPP1 enzyme assay with AMP-pNP substrate (hydrolysis of ATP analog). The note with it: AMP-pNP substrate (ATP analog); Ki from IC50 by Cheng-Prusoff; read-out: ENPP1 Inhibition _AMP-pNP: Ki. The method in brief: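 Human recombinant ENPP1 (60 ng/well) with 300 µM AMP-pNP in 50 mM Tris-HCl pH 8.5, 250 mM NaCl, 0.5 mM CaCl2, 1 µM ZnCl2, 0.1% DMSO, 20 min at 37 °C.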

Experiment [2] deals with T1, ENPP1. Put plainly: Indirect quantitation of 2',3'-cGAMP hydrolysis (AMP-Glo Assay kit). To be noted: cGAMP substrate; Ki from IC50 by Cheng-Prusoff; read-out: ENPP1 Inhibition -cGAMP: Ki.
Experiment [3] concerns the target T1, ENPP1. Put plainly: Substrate selectivity ratio, inhibition of cGAMP hydrolysis versus ATP hydrolysis. The note with it: ratio Ki AMP-pNP / Ki cGAMP. Here is the method: The selectivity ratios for inhibition of cGAMP hydrolysis versus ATP hydrolysis were then calculated as follows: […]

Turning to `COc1cc2ncnc(N3CCC(CCNS(N)(=O)=O)CC3)c2cc1OC(C)C` [Example 205, N-(2-(1-(6-isopropoxy-7-methoxyquinazolin-4-yl)piperidin-4-yl)ethyl)sulfamide], the Ki is above 1000 nM in experiment [1] and 100 to 1000 nM in experiment [2]. Also, in experiment [3], the “Substrate Selectivity: Ki_AMP-pNP/Ki_cGAMP” value (“Substrate Selectivity” for short) is on record as above 14.4.

On to `COc1ccc2c(Oc3ccc(NS(N)(=O)=O)cc3C#N)ccnc2c1` [Example 353], for which the figures for the inhibition constant (Ki) in experiment [1] and in experiment [2] were above 1000 nM and 100 to 1000 nM, respectively. Moreover, the “Substrate Selectivity” value in experiment [3] is above 74.

With `COc1ccc2c(-c3ccc(CNS(N)(=O)=O)s3)ccnc2c1` [Example 389, N-((5-(7-methoxyquinolin-4-yl)thiophen-2-yl)methyl)sulfamide], the Ki in experiment [1] and in experiment [2] was below 100 nM each time. The “Substrate Selectivity” value in experiment [3] came to 34.

For the compound `COc1cc2ncc(F)c(-c3ccc(CNS(N)(=O)=O)cc3)c2cc1OC` [Example 67, N-(4-(3-fluoro-6,7-dimethoxyquinolin-4-yl)benzyl)sulfamide], the inhibitory constant (Ki) in experiment [1] and in experiment [2] was below 100 nM each time. Moreover, the “Substrate Selectivity” value in experiment [3] amounted to 67.2.

For `COc1cc2nccc(-c3ccc(CNS(N)(=O)=O)c(F)c3)c2cc1OC` [Example 69, N-(4-(6,7-dimethoxyquinolin-4-yl) -2-fluorobenzyl)sulfamide], the inhibition constant Ki in experiment [1] and in experiment [2] was below 100 nM throughout. Further, the “Substrate Selectivity” value in experiment [3] is recorded as 8.9.

For `COc1ccc2ncnc(-c3ccc(CNS(N)(=O)=O)cc3)c2c1` [Example 264, N-(4-(6-methoxyquinazolin-4-yl)benzyl)sulfamide], the inhibitory constant (Ki) is above 1000 nM in experiment [1] and 100 to 1000 nM in experiment [2]. The “Substrate Selectivity” value in experiment [3] is listed as above 28.0.

Turning to `COc1ccc2c(NCc3ccc(NS(N)(=O)=O)cc3)ccnc2c1` [Example 267, N-(4-(((7-methoxyquinolin-4-yl)amino)methyl)phenyl)sulfamide], the Ki in experiment [1] was 100 to 1000 nM; in experiment [2], below 100 nM. For the same compound, the “Substrate Selectivity” value in experiment [3] came to 22.5.

`COc1ccc2c(Oc3ccc(S(=N)(=O)O)cc3F)ccnc2c1` [Example 382, 3-fluoro-4-((7-methoxyquinolin-4-yl)oxy)benzene sulfonamide]: the figures for the Ki in experiment [1] and in experiment [2] were above 1000 nM and below 100 nM, respectively. Besides, in experiment [3], the “Substrate Selectivity” value is reported as above 142.

`COc1ccc2c(-c3ccc(C(C)NS(N)(=O)=O)cc3)ccnc2c1` (stereo not drawn) [Example 416, N-(1-(4-(7-methoxyquinolin-4-yl)phenyl)ethyl)sulfamide]: the results for the inhibitory constant (Ki) in experiment [1] and in experiment [2] were 100 to 1000 nM and below 100 nM, respectively. The “Substrate Selectivity” value in experiment [3] is on record as 50.

As for `NS(=O)(=O)c1ccc(Oc2ccnc3[nH]c(=O)ccc23)cc1` [Example 352, 4-((7-oxo-7,8-dihydro-1,8-naphthyridin-4-yl)oxy)benzenesulfonamide], the Ki was 100 to 1000 nM in experiment [1] and below 100 nM in experiment [2]. The “Substrate Selectivity” value in experiment [3] came to 43.

`COc1ccc2ncc(C#N)c(-c3ccc(CNS(N)(=O)=O)cc3)c2c1` [Example 240, N-(4-(3-cyano-6-methoxyquinolin-4-yl)benzyl)sulfamide]: the values for the Ki in experiment [1] and in experiment [2] were above 1000 nM and below 100 nM, respectively. Further, the “Substrate Selectivity” value in experiment [3] is reported as above 81.3.

As to `COc1cc2nccc(N3CCc4cc(NS(N)(=O)=O)ccc43)c2cc1F` [Example 72, N-(1-(6-fluoro-7-methoxyquinolin-4-yl)indolin-5-yl)sulfamide], the inhibition constant (Ki) in experiment [1] and in experiment [2] was below 100 nM in each case. Also, the “Substrate Selectivity” value in experiment [3] amounted to 11.9.

Consider `COc1cc2nccc(N3CC4(C3)CN(S(N)(=O)=O)C4)c2cc1OC` [Example 214, 6-(6,7-dimethoxyquinolin-4-yl)-2,6-diazaspiro[3.3]heptane-2-sulfonamide], for which the inhibition constant Ki in experiment [1] was above 1000 nM; in experiment [2], 100 to 1000 nM. Moreover, in experiment [3], the “Substrate Selectivity” value is above 15.3.

Take `COc1cc2ncc(C#N)c(N3CCC4(CC3)CCN(S(N)(=O)=O)C4)c2cc1OC` [Example 64, 8-(3-cyano-6,7-dimethoxyquinolin-4-yl)-2,8-diazaspiro [4.5] decane-2-sulfonamide]: the inhibition constant (Ki) in experiment [1] and in experiment [2] was below 100 nM throughout. In experiment [3], the “Substrate Selectivity” value was 11.9.

`COc1cc2ncc(C)c(-c3ccc4c(c3)CN(S(N)(=O)=O)CC4)c2cc1OC` [Example 60, 7-(6,7-dimethoxy-3-methylquinolin-4-yl)-3,4-dihydroisoquinoline-2(1H)-sulfonamide]: the inhibition constant Ki in experiment [1] and in experiment [2] was below 100 nM in each case. The “Substrate Selectivity” value in experiment [3] is on record as 16.7.

In the case of `COc1ccc2c(Oc3ccc(S(N)(=O)=O)cc3)ccnc2n1` [Example 361, 4-(7-Methoxy-[1,8]naphthyridin-4-yl-oxy)-benzene sulfonamide], the inhibition constant Ki in experiment [1] and in experiment [2] was below 100 nM throughout. Further, the “Substrate Selectivity” value in experiment [3] is on record as 32.

`COc1ccc2c(NCc3ccc(NS(N)(=O)=O)cc3)ccnc2n1` [Example 417, N-(4-(((7-methoxy-1,8-naphthyridin-4-yl)amino)methyl)phenyl)sulfamide]: the inhibition constant Ki in experiment [1] and in experiment [2] was below 100 nM each time. For the same compound, the “Substrate Selectivity” value in experiment [3] turned out to be 30.

With `COc1cc2ncnc(N3CCC(CCNS(=O)(=O)NC(C)=O)CC3)c2cc1OC` [Example 200, N-(N-(2-(1-(6,7-dimethoxyquinazolin-4-yl)piperidin-4-yl)ethyl)sulfamoyl)acetamide], the Ki in experiment [1] was above 1000 nM; in experiment [2] it was 100 to 1000 nM. In addition, the “Substrate Selectivity” value in experiment [3] is above 64.2.

`COc1cc2ncnc(-c3ccc(CNS(N)(=O)=O)cc3)c2cc1OC` [Example 144, N-(4-(6,7-dimethoxyquinazolin-4-yl)benzyl)sulfamide]: the Ki was 100 to 1000 nM in experiment [1] and below 100 nM in experiment [2]. Moreover, the “Substrate Selectivity” value in experiment [3] was found to be 189.2.

As for `COc1cc2c(NCc3ccc(S(N)(=O)=O)cc3)ncnc2cn1` [Example 247, 4-(((6-methoxypyrido[3,4-d]pyrimidin-4-yl)amino)methyl)benzenesulfonamide], the Ki is above 1000 nM in experiment [1] and 100 to 1000 nM in experiment [2]. In addition, in experiment [3], the “Substrate Selectivity” value amounted to 67.3.

Regarding `COc1ccc2ncc(C#N)c(-c3ccc4c(c3)CN(S(N)(=O)=O)CC4)c2c1` [Example 237, 7-(3-cyano-6-methoxyquinolin-4-yl)-3,4-dihydroisoquinoline-2(1H)-sulfonamide], the inhibition constant (Ki) is above 1000 nM in experiment [1] and below 100 nM in experiment [2]. Besides, the “Substrate Selectivity” value in experiment [3] is above 371.

With `COc1cc2ncnc(N3CCC(CCN(O)C=O)CC3)c2cc1OC` [Example 219, N-(2-(1-(6,7-dimethoxyquinazolin-4-yl)piperidin-4-yl)ethyl)-N-hydroxyformamide], the Ki in experiment [1] is 100 to 1000 nM; in experiment [2], below 100 nM. Also, in experiment [3], the “Substrate Selectivity” value is recorded as 26.4.

Turning to `COc1ccc2c(Oc3ncc(NS(N)(=O)=O)cc3C)ccnc2c1` [Example 351, N-(6-((7-methoxyquinolin-4-yl)oxy)-5-methylpyridin-3-yl)sulfamide], the Ki is above 1000 nM in experiment [1] and below 100 nM in experiment [2]. Moreover, in experiment [3], the “Substrate Selectivity” value worked out at 55.

For `COc1cc2c(N3CCC(CCNS(N)(=O)=O)CC3)ncnc2cc1Cl` [Example 185, N-(2-(1-(7-chloro-6-methoxyquinazolin-4-yl)piperidin-4-yl)ethyl)sulfamide], the inhibition constant (Ki) in experiment [1] is above 1000 nM; in experiment [2] it was 100 to 1000 nM. For the same compound, the “Substrate Selectivity” value in experiment [3] was above 8.00.

On to `COc1cc2nccc(Oc3ccc(NS(N)(=O)=O)cc3)c2cn1` [Example 330, N-(4-((7-methoxy-1,6-naphthyridin-4-yl)oxy)phenyl)sulfamide], for which the Ki in experiment [1] is 100 to 1000 nM; in experiment [2] it was below 100 nM. Further, the “Substrate Selectivity” value in experiment [3] was 35.

Take `COc1ccc2c(-c3ccc4c(c3)CN(S(N)(=O)=O)CC4)c(C)cnc2c1` [Example 371, 7-(7-methoxy-3-methylquinolin-4-yl)-3,4-dihydroisoquinoline-2(1H)-sulfonamide]: the inhibition constant Ki in experiment [1] was above 1000 nM; in experiment [2], below 100 nM. In addition, the “Substrate Selectivity” value in experiment [3] was above 32.

For orientation: Ki means the dissociation constant of the complex between target and ligand, obtained from inhibition or displacement.

The record behind these values is patent publication US20230183239A1, “ECTONUCLEOTIDE PYROPHOSPHATASE-PHOSPHODIESTERASE 1 (ENPP-1) INHIBITORS AND USES THEREOF” (AbbVie Inc., priority 2017, published 2023).
